Test results as given in ChEMBL document CHEMBL3774310, “Discovery of antitumor anthra[2,3-b]furan-3-carboxamides: Optimization of synthesis and evaluation of antitumor properties” (Eur J Med Chem, 2016).
Active and inactive are the calls of the source. The rule behind the calls is not given here.

What was measured:
HeLa = assay: Antiproliferative activity against human HeLa cells after 72 hrs by MTT assay; type: functional, cell-based
[1] = Cytotoxicity against hFB-hTERT6 assessed as reduction in cell viability after 72 hrs by MTT assay; conditions: Homo sapiens, hFB-hTERT6, 72 h
HCT-116 [2] = assay: Induction of apoptosis in human HCT116 cells assessed as necrotic cells at 1 uM after 24 hrs by Annexin V-FITC/propidium iodide staining based assay (reference value: 2 +/- 1%); type: functional
HCT-116 [3] = assay: Induction of apoptosis in p53 knockout human HCT116 cells assessed as viable cells at 1 uM after 24 hrs by Annexin V-FITC/propidium iodide staining based assay (reference value: 93 +/- 3%); type: functional
HCT-116 [4] = assay: Induction of apoptosis in p53 knockout human HCT116 cells assessed as early apoptotic cells at 1 uM after 48 hrs by Annexin V-FITC/propidium iodide staining based assay (reference value: 2 +/- 1%); type: functional
HCT-116 [5] = assay: Induction of apoptosis in p53 knockout human HCT116 cells assessed as late apoptotic cells at 1 uM after 24 hrs by Annexin V-FITC/propidium iodide staining based assay (reference value: 2 +/- 1%); type: functional
HCT-116 [6] = assay: Induction of apoptosis in p53 knockout human HCT116 cells assessed as late apoptotic cells at 1 uM after 48 hrs by Annexin V-FITC/propidium iodide staining based assay (reference value: 2 +/- 1%); type: functional
HCT-116 [7] = assay: Induction of apoptosis in p53 knockout human HCT116 cells assessed as necrotic cells at 1 uM after 24 hrs by Annexin V-FITC/propidium iodide staining based assay (reference value: 2 +/- 1%); type: functional
HCT-116 [8] = assay: Induction of apoptosis in p53 knockout human HCT116 cells assessed as necrotic cells at 1 uM after 48 hrs by Annexin V-FITC/propidium iodide staining based assay (reference value: 2 +/- 1%); type: functional
Calf thymus DNA [9] = assay: Binding affinity to calf thymus DNA assessed as bathochromic shift at 5 uM by spectrophotometric analysis; type: nucleic-acid assay; conditions: Bos taurus
P388 [10] = assay: Antitumor activity against mouse P388 cells transplanted in DBA2/BDF1 mouse assessed as mean life span at 50 mg/kg, ip dosed daily for 5 days relative to control; type: functional
P388 [11] = assay: Antitumor activity against mouse P388 cells transplanted in DBA2/BDF1 mouse assessed as mean life span at 30 mg/kg, ip dosed daily for 5 days (reference value: 9.7 +/- 1.1 day); type: functional
Calf thymus DNA [12] = assay: Binding affinity to calf thymus DNA assessed as dissociation constant by Scatchard plot analysis; type: nucleic-acid assay, Bos taurus
Calf thymus DNA [13] = conditions: Bos taurus
Description: Binding affinity to calf thymus DNA assessed as binding constant by Scatchard plot analysis

L1210 = assay: cells; conditions: Mus musculus, L1210, 48 h
Description: Antiproliferative activity against mouse L1210 cells after 48 hrs by MTT assay

K562 = assay: cells; conditions: Homo sapiens, K562, 72 h
Description: Antiproliferative activity against human K562 cells after 72 hrs by MTT assay

cells = conditions: Homo sapiens, HCT-116, 72 h
Description: Antiproliferative activity against human HCT116 cells after 72 hrs by MTT assay

[14] = target: MAP kinase-interacting serine/threonine-protein kinase 1 (Homo sapiens, UniProt Q9BUB5); assay: Inhibition of human MKNK1 by flashplate based radiometric 33pan-quinase assay
Aurora kinase B = Aurora kinase B (Homo sapiens, UniProt Q96GD4); assay: Inhibition of full length human N-terminal GST-HIS6-tagged Aurora B expressed in sf9 cells by flashplate based radiometric 33pan-quinase assay
Aurora kinase C = Aurora kinase C (Homo sapiens, UniProt Q9UQB9); assay: Inhibition of full length human N-terminal GST-HIS6-tagged Aurora C expressed in sf9 cells by flashplate based radiometric 33pan-quinase assay
[15] = target: Fibroblast growth factor receptor 1 (Homo sapiens, UniProt P11362, V561M); assay: Inhibition of human FGF-R1 V561M mutant expressed in sf9 cells by flashplate based radiometric 33pan-quinase assay
[16] = target: Mitogen-activated protein kinase kinase kinase 7 (Homo sapiens, UniProt O43318); assay: Inhibition of human MAP3K7 by flashplate based radiometric 33pan-quinase assay
[17] = target: Serine/threonine-protein kinase pim-1 (Homo sapiens, UniProt P11309); assay: Inhibition of full length human N-terminal GST-HIS6-tagged PIM1 expressed in sf9 cells by flashplate based radiometric 33pan-quinase assay
[18] = target: Serine/threonine-protein kinase pim-3 (Homo sapiens, UniProt Q86V86); assay: Inhibition of full length human N-terminal GST-HIS6-tagged PIM3 expressed in sf9 cells by flashplate based radiometric 33pan-quinase assay
[19] = target: Dual serine/threonine and tyrosine protein kinase (Homo sapiens, UniProt Q6XUX3); assay: Inhibition of human RIPK5 by flashplate based radiometric 33pan-quinase assay
[20] = target: Serine/threonine-protein kinase tousled-like 1 (Homo sapiens, UniProt Q9UKI8); assay: Inhibition of human N-terminal FLAG, C-terminal HIS8-tagged TLK1 expressed in sf9 cells by flashplate based radiometric 33pan-quinase assay
Mus musculus [21] = assay: Toxicity in DBA2/BDF1 mouse transplanted with mouse P388 cells assessed as reduction in spleen mass at 50 mg/kg, ip dosed daily for 5 days relative to control; type: organism-based; design: scale not given: the % may be the effect or the level left; conditions: in vivo, 120 h
Mus musculus [22] = assay: Toxicity in DBA2/BDF1 mouse transplanted with mouse P388 cells assessed as spleen mass at 50 mg/kg, ip dosed daily for 5 days (reference value: 142 mg); type: organism-based; conditions: in vivo, 120 h
P388 [23] = assay: Antitumor activity against mouse P388 cells transplanted in DBA2/BDF1 mouse assessed as mean life span at 5 mg/kg, ip dosed daily for 5 days (reference value: 9.6 +/- 0.5 day); type: functional
P388 [24] = assay: Antitumor activity against mouse P388 cells transplanted in DBA2/BDF1 mouse assessed as mean life span at 10 mg/kg, ip dosed daily for 5 days (reference value: 9.6 +/- 0.5 day); type: functional
P388 [25] = assay: Antitumor activity against mouse P388 cells transplanted in DBA2/BDF1 mouse assessed as mean life span at 20 mg/kg, ip dosed daily for 5 days (reference value: 9.6 +/- 0.5 day); type: functional
P388 [26] = assay: Antitumor activity against mouse P388 cells transplanted in DBA2/BDF1 mouse assessed as mean life span at 5 mg/kg, ip dosed daily for 5 days relative to control; type: functional
P388 [27] = assay: Antitumor activity against mouse P388 cells transplanted in DBA2/BDF1 mouse assessed as mean life span at 10 mg/kg, ip dosed daily for 5 days relative to control; type: functional
P388 [28] = assay: Antitumor activity against mouse P388 cells transplanted in DBA2/BDF1 mouse assessed as mean life span at 20 mg/kg, ip dosed daily for 5 days relative to control; type: functional
P388 [29] = assay: Antitumor activity against mouse P388 cells transplanted in DBA2/BDF1 mouse assessed as mean life span at 40 mg/kg, ip dosed daily for 5 days relative to control; type: functional
Mus musculus [30] = assay: Toxicity in DBA2/BDF1 mouse transplanted with mouse P388 cells at 5 to 40 mg/kg, ip dosed daily for 5 days; type: organism-based; conditions: in vivo, 120 h
Mus musculus [31] = assay: Toxicity in mouse P388 cells transplanted DBA2/BDF1 mouse assessed as mouse mortality at 50 mg/kg, ip dosed daily for 5 days; type: organism-based; conditions: in vivo, 120 h

Chain of Dual serine/threonine and tyrosine protein kinase (Q6XUX3 whole entry): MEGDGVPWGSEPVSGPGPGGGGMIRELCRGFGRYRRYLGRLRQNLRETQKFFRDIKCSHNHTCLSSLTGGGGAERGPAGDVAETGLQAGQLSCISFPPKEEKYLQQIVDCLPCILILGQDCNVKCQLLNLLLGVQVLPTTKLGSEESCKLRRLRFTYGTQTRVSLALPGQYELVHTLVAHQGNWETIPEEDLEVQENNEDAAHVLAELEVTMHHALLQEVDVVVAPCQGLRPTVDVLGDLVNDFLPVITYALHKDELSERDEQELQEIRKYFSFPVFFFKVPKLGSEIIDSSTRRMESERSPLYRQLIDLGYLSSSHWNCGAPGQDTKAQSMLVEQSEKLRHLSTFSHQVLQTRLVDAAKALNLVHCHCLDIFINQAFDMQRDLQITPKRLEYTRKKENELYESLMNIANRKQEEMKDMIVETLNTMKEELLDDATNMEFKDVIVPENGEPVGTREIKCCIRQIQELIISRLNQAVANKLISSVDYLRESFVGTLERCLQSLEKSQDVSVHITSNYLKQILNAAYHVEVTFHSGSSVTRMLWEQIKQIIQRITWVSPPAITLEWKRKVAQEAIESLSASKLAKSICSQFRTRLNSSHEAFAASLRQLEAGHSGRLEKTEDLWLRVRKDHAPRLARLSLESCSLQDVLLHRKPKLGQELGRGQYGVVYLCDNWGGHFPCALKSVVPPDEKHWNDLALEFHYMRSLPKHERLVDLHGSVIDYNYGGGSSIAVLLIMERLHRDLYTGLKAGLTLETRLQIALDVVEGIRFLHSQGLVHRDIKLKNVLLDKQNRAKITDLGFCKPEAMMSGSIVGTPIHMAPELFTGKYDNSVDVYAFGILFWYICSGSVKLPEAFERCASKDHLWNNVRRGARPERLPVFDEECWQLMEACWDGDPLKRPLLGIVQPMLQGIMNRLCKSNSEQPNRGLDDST
Chain of Fibroblast growth factor receptor 1 (P11362 22-822 V561M limits assumed): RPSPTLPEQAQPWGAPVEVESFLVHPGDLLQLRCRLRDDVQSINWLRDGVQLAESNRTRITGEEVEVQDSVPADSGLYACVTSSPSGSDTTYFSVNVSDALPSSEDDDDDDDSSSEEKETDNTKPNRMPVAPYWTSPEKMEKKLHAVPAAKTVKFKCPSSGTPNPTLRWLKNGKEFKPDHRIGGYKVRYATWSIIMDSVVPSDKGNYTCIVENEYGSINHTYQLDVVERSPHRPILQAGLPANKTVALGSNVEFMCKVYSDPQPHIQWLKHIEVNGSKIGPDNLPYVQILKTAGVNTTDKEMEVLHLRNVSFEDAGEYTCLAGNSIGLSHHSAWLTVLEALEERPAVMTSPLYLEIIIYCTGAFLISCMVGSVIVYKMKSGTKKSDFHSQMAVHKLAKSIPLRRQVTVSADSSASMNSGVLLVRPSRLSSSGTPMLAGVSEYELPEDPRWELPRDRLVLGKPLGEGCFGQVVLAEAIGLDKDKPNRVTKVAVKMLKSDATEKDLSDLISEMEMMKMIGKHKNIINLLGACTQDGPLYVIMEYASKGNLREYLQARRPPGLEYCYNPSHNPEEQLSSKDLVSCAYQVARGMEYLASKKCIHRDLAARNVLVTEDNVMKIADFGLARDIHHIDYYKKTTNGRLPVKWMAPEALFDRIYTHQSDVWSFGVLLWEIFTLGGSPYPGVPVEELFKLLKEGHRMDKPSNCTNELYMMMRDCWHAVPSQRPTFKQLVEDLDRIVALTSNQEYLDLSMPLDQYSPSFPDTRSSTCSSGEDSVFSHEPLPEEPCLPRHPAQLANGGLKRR
Chain of MAP kinase-interacting serine/threonine-protein kinase 1 (Q9BUB5 whole entry): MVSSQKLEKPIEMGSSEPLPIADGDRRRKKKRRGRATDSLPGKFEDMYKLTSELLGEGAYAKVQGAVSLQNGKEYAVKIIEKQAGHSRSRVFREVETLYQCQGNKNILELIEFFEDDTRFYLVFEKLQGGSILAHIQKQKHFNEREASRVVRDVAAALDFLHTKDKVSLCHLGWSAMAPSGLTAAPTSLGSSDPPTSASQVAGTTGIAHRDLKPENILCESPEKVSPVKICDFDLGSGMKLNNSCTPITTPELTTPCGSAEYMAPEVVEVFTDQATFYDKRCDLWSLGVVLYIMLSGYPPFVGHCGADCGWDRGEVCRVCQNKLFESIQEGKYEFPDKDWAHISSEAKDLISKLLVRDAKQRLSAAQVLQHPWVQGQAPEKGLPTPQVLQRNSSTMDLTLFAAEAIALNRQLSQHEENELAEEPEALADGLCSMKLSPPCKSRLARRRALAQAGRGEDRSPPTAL
Chain of Serine/threonine-protein kinase tousled-like 1 (Q9UKI8 whole entry): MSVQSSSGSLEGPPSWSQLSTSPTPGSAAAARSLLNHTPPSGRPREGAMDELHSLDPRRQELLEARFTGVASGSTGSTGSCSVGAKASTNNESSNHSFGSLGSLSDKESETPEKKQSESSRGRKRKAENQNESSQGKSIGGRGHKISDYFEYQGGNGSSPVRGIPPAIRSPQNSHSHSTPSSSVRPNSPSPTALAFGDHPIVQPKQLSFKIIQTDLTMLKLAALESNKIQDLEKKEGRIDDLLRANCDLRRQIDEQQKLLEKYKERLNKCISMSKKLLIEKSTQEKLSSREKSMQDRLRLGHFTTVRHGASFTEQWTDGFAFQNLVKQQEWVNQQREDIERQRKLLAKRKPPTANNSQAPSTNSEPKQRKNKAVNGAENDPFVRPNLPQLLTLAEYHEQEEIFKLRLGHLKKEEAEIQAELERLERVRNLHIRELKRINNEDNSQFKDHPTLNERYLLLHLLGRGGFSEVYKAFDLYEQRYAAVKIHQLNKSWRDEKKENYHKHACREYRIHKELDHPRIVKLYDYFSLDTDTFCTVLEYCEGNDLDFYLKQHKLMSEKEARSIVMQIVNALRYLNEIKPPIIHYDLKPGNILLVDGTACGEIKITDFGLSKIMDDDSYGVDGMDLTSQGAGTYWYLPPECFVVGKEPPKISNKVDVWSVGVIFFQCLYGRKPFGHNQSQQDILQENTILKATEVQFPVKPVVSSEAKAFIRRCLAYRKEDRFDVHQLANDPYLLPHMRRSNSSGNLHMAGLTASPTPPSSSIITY
Chain of Aurora kinase B (Q96GD4 whole entry): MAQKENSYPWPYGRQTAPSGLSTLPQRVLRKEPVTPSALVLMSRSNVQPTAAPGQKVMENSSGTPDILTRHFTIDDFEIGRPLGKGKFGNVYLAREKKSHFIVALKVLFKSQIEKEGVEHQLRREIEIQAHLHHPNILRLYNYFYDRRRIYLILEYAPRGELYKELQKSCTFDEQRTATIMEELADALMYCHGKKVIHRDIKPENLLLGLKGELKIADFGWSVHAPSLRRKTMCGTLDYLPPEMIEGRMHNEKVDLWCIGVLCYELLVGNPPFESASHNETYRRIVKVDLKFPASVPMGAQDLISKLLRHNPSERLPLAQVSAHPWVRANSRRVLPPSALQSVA
Chain of Mitogen-activated protein kinase kinase kinase 7 (O43318 whole entry): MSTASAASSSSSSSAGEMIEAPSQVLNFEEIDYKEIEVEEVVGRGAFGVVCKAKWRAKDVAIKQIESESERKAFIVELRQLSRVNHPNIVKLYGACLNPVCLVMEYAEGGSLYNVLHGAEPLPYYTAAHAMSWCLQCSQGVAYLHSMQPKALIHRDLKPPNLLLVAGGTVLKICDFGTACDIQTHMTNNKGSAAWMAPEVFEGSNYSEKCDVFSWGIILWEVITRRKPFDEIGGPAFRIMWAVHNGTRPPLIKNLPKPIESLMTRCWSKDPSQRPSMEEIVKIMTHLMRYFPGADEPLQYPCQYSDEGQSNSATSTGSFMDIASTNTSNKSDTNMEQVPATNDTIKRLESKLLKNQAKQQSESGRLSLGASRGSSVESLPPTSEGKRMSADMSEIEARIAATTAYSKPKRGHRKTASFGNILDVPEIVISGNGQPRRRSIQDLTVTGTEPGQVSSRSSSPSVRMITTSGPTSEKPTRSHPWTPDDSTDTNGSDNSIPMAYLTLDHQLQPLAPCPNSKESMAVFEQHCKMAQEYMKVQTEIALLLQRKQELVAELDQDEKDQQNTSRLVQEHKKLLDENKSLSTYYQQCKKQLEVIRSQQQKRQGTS
Chain of Aurora kinase C (Q9UQB9 whole entry): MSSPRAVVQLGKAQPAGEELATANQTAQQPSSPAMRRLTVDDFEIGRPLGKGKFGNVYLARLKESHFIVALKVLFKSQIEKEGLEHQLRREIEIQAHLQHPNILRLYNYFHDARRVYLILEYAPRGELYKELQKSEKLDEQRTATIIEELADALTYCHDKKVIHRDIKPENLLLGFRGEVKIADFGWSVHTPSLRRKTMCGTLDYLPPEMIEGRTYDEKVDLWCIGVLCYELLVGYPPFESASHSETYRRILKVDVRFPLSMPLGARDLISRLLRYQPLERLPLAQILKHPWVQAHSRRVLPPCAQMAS
Chain of Serine/threonine-protein kinase pim-1 (P11309 whole entry): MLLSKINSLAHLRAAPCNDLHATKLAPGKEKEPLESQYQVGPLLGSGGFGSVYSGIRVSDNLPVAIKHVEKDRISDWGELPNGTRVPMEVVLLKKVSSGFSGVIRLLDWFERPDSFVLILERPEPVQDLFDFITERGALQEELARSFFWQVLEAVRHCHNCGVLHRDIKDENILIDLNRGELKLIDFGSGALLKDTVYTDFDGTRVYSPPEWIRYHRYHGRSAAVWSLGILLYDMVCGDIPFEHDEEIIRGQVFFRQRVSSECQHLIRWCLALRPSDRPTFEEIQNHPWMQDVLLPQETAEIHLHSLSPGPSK

## CS(=O)(=O)O.Cc1oc2c(O)c3c(c(O)c2c1C(=O)N1CC[C@@H](N)C1)C(=O)c1ccccc1C3=O
HeLa
  IC50: 2.1 µM
[1]
  IC50: > 50 µM
HCT-116 [2]
  Activity: Active
HCT-116 [3]
  Activity: Active
HCT-116 [4]
  Activity: Active
HCT-116 [5]
  Activity: Active
HCT-116 [6]
  Activity: Active
HCT-116 [7]
  Activity: Active
HCT-116 [8]
  Activity: Active
Calf thymus DNA [9]
  Activity: 9 nm
P388 [10]
  Activity: 178%
P388 [11]
  Activity: 11.8 days
Calf thymus DNA [12]
  Kd: 2 µM
Calf thymus DNA [13]
  Ka: 5 ×10⁵ /M
L1210
  IC50: 1.9 µM
K562
  IC50: 1.1 µM
cells
  IC50: 1.2 µM

## CS(=O)(=O)O.Cc1oc2c(O)c3c(c(O)c2c1C(=O)N1CC[C@H](N)C1)C(=O)c1ccccc1C3=O
[1]
  IC50: > 50 µM
HCT-116 [2]
  Activity: 10%
HCT-116 [3]; HCT-116, 24 h, read-out: Activity
  viability at 1 µM: 54%
HCT-116 [4]
  Activity: 46%
HCT-116 [5]
  Activity: 12%
HCT-116 [6]
  Activity: 14%
HCT-116 [7]
  Activity: 11%
HCT-116 [8]
  Activity: 33%
Calf thymus DNA [9]
  Activity: 9 nm
[14]
  IC50: < 5 µM
Aurora kinase B
  IC50: < 5 µM
Aurora kinase C
  IC50: < 5 µM
[15]
  IC50: < 5 µM
[16]
  IC50: < 5 µM
[17]
  IC50: < 5 µM
[18]
  IC50: < 5 µM
[19]
  IC50: < 5 µM
[20]
  IC50: < 5 µM
Mus musculus [21]
  Activity: 40%
Mus musculus [22]
  Activity: 87 mg
P388 [23]
  Activity: 13.4 days
P388 [24]
  Activity: 16.3 days
P388 [25]
  Activity: 21.3 days
P388 [26]
  Activity: 140%
P388 [27]
  Activity: 170%
P388 [28]
  Activity: 222%
P388 [29]
  Activity: 262%
Mus musculus [30]
  Activity: Non-toxic
Mus musculus [31]
  Activity: Toxic
